System: P12-Ichikawa
Assay: cell viability relative to DMSO control; higher = less cytotoxic
Details: 48 h
In short: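 Viability is a per-plate percentage relative to DMSO wells, with cell-free wells as background. CellTiter-Glo One luminescence was read after 48 h at 37°C on 1536-well plates (5 μl) of NOMO1 or SEM (500 cells/well) or P12-Ichikawa (1000 cells/well) leukemia cells. The cells had been adapted for at least four passages in each medium and pin-dosed with library compounds in DMSO from 47 μM to 0.79 nM in 11 threefold steps.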

[1] = HPLM + 10% dialyzed FBS, 0.000781 µM
[2] = HPLM + 10% dialyzed FBS, 0.00234 µM
[3] = HPLM + 10% dialyzed FBS, 0.00702 µM
[4] = HPLM + 10% dialyzed FBS, 0.0211 µM
[5] = HPLM + 10% dialyzed FBS, 0.0632 µM
[6] = HPLM + 10% dialyzed FBS, 0.19 µM
[7] = HPLM + 10% dialyzed FBS, 0.569 µM
[8] = HPLM + 10% dialyzed FBS, 1.71 µM
[9] = HPLM + 10% dialyzed FBS, 5.12 µM
[10] = HPLM + 10% dialyzed FBS, 15.4 µM
[11] = HPLM + 10% dialyzed FBS, 46.1 µM
[12] = RPMI 5 mM glucose + 10% FBS, 0.000781 µM
[13] = RPMI 5 mM glucose + 10% FBS, 0.00234 µM
[14] = RPMI 5 mM glucose + 10% FBS, 0.00702 µM
[15] = RPMI 5 mM glucose + 10% FBS, 0.0211 µM
[16] = RPMI 5 mM glucose + 10% FBS, 0.0632 µM
[17] = RPMI 5 mM glucose + 10% FBS, 0.19 µM
[18] = RPMI 5 mM glucose + 10% FBS, 0.569 µM
[19] = RPMI 5 mM glucose + 10% FBS, 1.71 µM
[20] = RPMI 5 mM glucose + 10% FBS, 5.12 µM
[21] = RPMI 5 mM glucose + 10% FBS, 15.4 µM
[22] = RPMI 5 mM glucose + 10% FBS, 46.1 µM
[23] = RPMI 5 mM glucose + 10% dialyzed FBS, 0.000781 µM
[24] = RPMI 5 mM glucose + 10% dialyzed FBS, 0.00234 µM
[25] = RPMI 5 mM glucose + 10% dialyzed FBS, 0.00702 µM
[26] = RPMI 5 mM glucose + 10% dialyzed FBS, 0.0211 µM
[27] = RPMI 5 mM glucose + 10% dialyzed FBS, 0.0632 µM
[28] = RPMI 5 mM glucose + 10% dialyzed FBS, 0.19 µM
[29] = RPMI 5 mM glucose + 10% dialyzed FBS, 0.569 µM
[30] = RPMI 5 mM glucose + 10% dialyzed FBS, 1.71 µM
[31] = RPMI 5 mM glucose + 10% dialyzed FBS, 5.12 µM
[32] = RPMI 5 mM glucose + 10% dialyzed FBS, 15.4 µM
[33] = RPMI 5 mM glucose + 10% dialyzed FBS, 46.1 µM

## O=C(c1ccc(Nc2nccc(-c3cc4ccccc4s3)n2)cc1)N1CCC(N2CCCC2)CC1
[1]
  cell viability: 115%
[2]
  cell viability: 109%
[3]
  cell viability: 116%
[4]
  cell viability: 112%
[5]
  cell viability: 120%
[6]
  cell viability: 107%
[7]
  cell viability: 103%
[8]
  cell viability: 98.8%
[9]
  cell viability: 99.5%
[10]
  cell viability: 67.7%
[11]
  cell viability: 3.26%
[12]
  cell viability: 117%
[13]
  cell viability: 125%
[14]
  cell viability: 119%
[15]
  cell viability: 117%
[16]
  cell viability: 114%
[17]
  cell viability: 107%
[18]
  cell viability: 112%
[19]
  cell viability: 112%
[20]
  cell viability: 105%
[21]
  cell viability: 82.9%
[22]
  cell viability: 6.91%
[23]
  cell viability: 113%
[24]
  cell viability: 119%
[25]
  cell viability: 115%
[26]
  cell viability: 119%
[27]
  cell viability: 123%
[28]
  cell viability: 106%
[29]
  cell viability: 113%
[30]
  cell viability: 107%
[31]
  cell viability: 101%
[32]
  cell viability: 63.8%
[33]
  cell viability: 7%

## C\C1=C(\C=C(C#N)/C(=O)N1)C2=C[N]3C=CN=C3C=C2
[1]
  cell viability: 88.1%
[2]
  cell viability: 82.3%
[3]
  cell viability: 87.3%
[4]
  cell viability: 89.8%
[5]
  cell viability: 87.1%
[6]
  cell viability: 84.6%
[7]
  cell viability: 89.9%
[8]
  cell viability: 88.5%
[9]
  cell viability: 85.1%
[10]
  cell viability: 91.5%
[11]
  cell viability: 92.5%
[12]
  cell viability: 88.8%
[13]
  cell viability: 80.1%
[14]
  cell viability: 82.9%
[15]
  cell viability: 88%
[16]
  cell viability: 79.3%
[17]
  cell viability: 79.2%
[18]
  cell viability: 80%
[19]
  cell viability: 81.7%
[20]
  cell viability: 86.6%
[21]
  cell viability: 80.5%
[22]
  cell viability: 84.7%
[23]
  cell viability: 81.7%
[24]
  cell viability: 72.9%
[25]
  cell viability: 78.3%
[26]
  cell viability: 78.7%
[27]
  cell viability: 81.5%
[28]
  cell viability: 78.8%
[29]
  cell viability: 80.7%
[30]
  cell viability: 78.3%
[31]
  cell viability: 80.4%
[32]
  cell viability: 74.9%
[33]
  cell viability: 77.9%

## O=C(O[C@H]1C[C@H]2CC[C@@H](C1)[N+]21CCCC1)C(O)(c1ccccc1)c1ccccc1.[Cl-]
[1]
  cell viability: 104%
[2]
  cell viability: 104%
[3]
  cell viability: 112%
[4]
  cell viability: 106%
[5]
  cell viability: 117%
[6]
  cell viability: 105%
[7]
  cell viability: 110%
[8]
  cell viability: 116%
[9]
  cell viability: 107%
[10]
  cell viability: 116%
[11]
  cell viability: 110%
[12]
  cell viability: 107%
[13]
  cell viability: 104%
[14]
  cell viability: 113%
[15]
  cell viability: 116%
[16]
  cell viability: 120%
[17]
  cell viability: 127%
[18]
  cell viability: 127%
[19]
  cell viability: 106%
[20]
  cell viability: 113%
[21]
  cell viability: 115%
[22]
  cell viability: 115%
[23]
  cell viability: 99.5%
[24]
  cell viability: 99.9%
[25]
  cell viability: 105%
[26]
  cell viability: 106%
[27]
  cell viability: 117%
[28]
  cell viability: 110%
[29]
  cell viability: 104%
[30]
  cell viability: 113%
[31]
  cell viability: 107%
[32]
  cell viability: 103%
[33]
  cell viability: 103%

## CC(C)C1=C(O)C=C(O)C(=C1)C/2=N/NC(=O)N2C3=CC4=C(C=C3)[N](C)C=C4
[1]
  cell viability: 119%
[2]
  cell viability: 118%
[3]
  cell viability: 118%
[4]
  cell viability: 117%
[5]
  cell viability: 116%
[6]
  cell viability: 78.1%
[7]
  cell viability: 51.7%
[8]
  cell viability: 54.2%
[9]
  cell viability: 49%
[10]
  cell viability: 47.4%
[11]
  cell viability: 45.3%
[12]
  cell viability: 119%
[13]
  cell viability: 123%
[14]
  cell viability: 125%
[15]
  cell viability: 112%
[16]
  cell viability: 110%
[17]
  cell viability: 51%
[18]
  cell viability: 41%
[19]
  cell viability: 41.3%
[20]
  cell viability: 41.8%
[21]
  cell viability: 41.6%
[22]
  cell viability: 38.6%
[23]
  cell viability: 112%
[24]
  cell viability: 123%
[25]
  cell viability: 127%
[26]
  cell viability: 122%
[27]
  cell viability: 116%
[28]
  cell viability: 48.7%
[29]
  cell viability: 45.6%
[30]
  cell viability: 42.6%
[31]
  cell viability: 44.4%
[32]
  cell viability: 41.5%
[33]
  cell viability: 39%

## C[C@]12CC[C@@H]3c4ccc(O)cc4C[C@@H](CCCCCCCCC[S+]([O-])CCCC(F)(F)C(F)(F)F)[C@H]3[C@@H]1CC[C@@H]2O (stereo partly drawn)
[1]
  cell viability: 112%
[2]
  cell viability: 119%
[3]
  cell viability: 115%
[4]
  cell viability: 116%
[5]
  cell viability: 112%
[6]
  cell viability: 117%
[7]
  cell viability: 112%
[8]
  cell viability: 112%
[9]
  cell viability: 116%
[10]
  cell viability: 104%
[11]
  cell viability: 104%

— the supplement of paper PMC11451515
